From ChEMBL document CHEMBL1201862, “PubChem BioAssay data set” (2004)
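Compound exposure: 48 hours, 5 concentrations, 96-well plates. GI50: concentration for 50% inhibition of growth.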 Activity calls are given as the source filed them. No stated cut-off is given here; in the data, active = GI50 up to about 1.1 µM and inactive = higher.

How the values were obtained:
Assay in all cases: NCI tumour cell line growth inhibition, 48 h
786-0 = system: 786-0
OVCAR-8 = system: OVCAR-8
SK-MEL-2 = system: SK-MEL-2
HOP-62 = system: HOP-62
Malme-3M = system: Malme-3M
HCT-15 = system: HCT-15
K562 = system: K562
HT-29 = system: HT-29
A498 = system: A498
SN12C = system: SN12C
SK-MEL-28 = system: SK-MEL-28
ACHN = system: ACHN
LOX IMVI = system: LOX IMVI
CCRF-CEM = system: CCRF-CEM
MOLT-4 = system: MOLT-4
SF-295 = system: SF-295
RXF 393 = system: RXF 393
CAKI-1 = system: CAKI-1
NCI/ADR-RES = system: NCI/ADR-RES

Row | SMILES | GI50 (786-0) | GI50 (OVCAR-8) | GI50 (SK-MEL-2) | GI50 (HOP-62) | GI50 (Malme-3M) | GI50 (HCT-15) [µM] | GI50 (K562) | GI50 (HT-29) | GI50 (A498) | GI50 (SN12C) | GI50 (SK-MEL-28) | GI50 (ACHN) | GI50 (LOX IMVI) | GI50 (CCRF-CEM) | GI50 (MOLT-4) | GI50 (SF-295) | GI50 (RXF 393) | GI50 (CAKI-1) | GI50 (NCI/ADR-RES)
1 | COc1ccc(C2S/C(=C\c3ccccc3)C(=O)N2NC(=O)Cc2ccccc2)cc1 (stereo unspecified) | > 100 µM (inactive) | > 100 µM (inactive) | > 100 µM (inactive) | > 100 µM (inactive) | > 100 µM (inactive) | 40.7 | > 100 µM (inactive) | > 100 µM (inactive) | > 100 µM (inactive) | > 100 µM (inactive) | 26.1 µM (inactive) | > 100 µM (inactive) | > 100 µM (inactive) | 49.3 µM (inactive) | > 100 µM (inactive) | > 100 µM (inactive) | > 100 µM (inactive) | > 100 µM (inactive) | 
2 | Nc1ccc(C(c2ccccc2)(c2ccccc2)c2ccccc2)cc1 | 48.2 µM (inactive) | 33.9 µM (inactive) | > 100 µM (inactive) | 27.9 µM (inactive) | 30.8 µM (inactive) | 78.7 | 70.6 µM (inactive) | 45.5 µM (inactive) | > 100 µM (inactive) | 66.5 µM (inactive) | 19.7 µM (inactive) | 52.5 µM (inactive) | 47.6 µM (inactive) | 29.6 µM (inactive) | > 100 µM (inactive) | 12.3 µM (inactive) | 10.3 µM (inactive) |  | 
3 | CCOC(=O)c1nn2c(nc1=O)sc1ccc3ccccc3c12 | > 100 µM (inactive) | > 100 µM (inactive) | > 100 µM (inactive) | > 100 µM (inactive) | > 100 µM (inactive) | > 100 | > 100 µM (inactive) | > 100 µM (inactive) |  | > 100 µM (inactive) | > 100 µM (inactive) | > 100 µM (inactive) | > 100 µM (inactive) | 58.2 µM (inactive) | > 100 µM (inactive) | > 100 µM (inactive) | > 100 µM (inactive) | > 100 µM (inactive) | 
4 | Cc1cc(C)nc(NS(=O)(=O)c2ccc(NC(=O)c3cccc4c(Nc5ccc(S(=O)(=O)N=C(N)N)cc5)c5ccc(Cl)cc5nc34)cc2)n1 | 17.7 µM (inactive) | 39.4 µM (inactive) |  | 43.7 µM (inactive) | 85.1 µM (inactive) | 39.4 | 26.2 µM (inactive) | 33.1 µM (inactive) | > 100 µM (inactive) | 29.8 µM (inactive) | 37.4 µM (inactive) | 80.9 µM (inactive) | 19.8 µM (inactive) | 21.4 µM (inactive) | 15.6 µM (inactive) | 24.1 µM (inactive) | 18.9 µM (inactive) |  | 
5 | COc1ccc2c(c1)CN1CCc3c(cc(OC)c(OC)c3OC)C1C2 (stereo unspecified) | > 100 µM (inactive) | > 100 µM (inactive) | > 100 µM (inactive) | > 100 µM (inactive) | > 100 µM (inactive) | > 100 | 57.5 µM (inactive) | 68.5 µM (inactive) |  | > 100 µM (inactive) | 47.6 µM (inactive) | > 100 µM (inactive) |  | 74.6 µM (inactive) | 63 µM (inactive) | > 100 µM (inactive) | > 100 µM (inactive) | > 100 µM (inactive) | 
6 | Cc1cccc(C(C)(C)C)c1NC(=O)CC1C(=O)Nc2ccccc2S1(=O)=O (stereo unspecified) | 10 µM (inactive) | 10.6 µM (inactive) | 9.12 µM (inactive) |  | 11.8 µM (inactive) | 4.76 | 2.84 µM (inactive) | 5.25 µM (inactive) | 14.9 µM (inactive) | 12.3 µM (inactive) | 14.1 µM (inactive) | 10.8 µM (inactive) | 5.98 µM (inactive) | 2.34 µM (inactive) | 2.28 µM (inactive) | 7.1 µM (inactive) | 13.4 µM (inactive) | 16.8 µM (inactive) | 
7 | CC(=O)OC(C)(C)/C=C/C(=O)[C@](C)(O)[C@H]1[C@H](O)C[C@@]2(C)[C@@H]3CC=C4[C@@H](C[C@H](O)[C@H](O)C4(C)C)[C@]3(C)C(=O)C[C@]12C | 0.24 µM (active) | 0.33 µM (active) | 0.752 µM (active) | 1.51 µM (inactive) | 1.11 µM (active) | 0.294 | 0.272 µM (active) | 0.302 µM (active) | 0.853 µM (active) | 0.401 µM (active) | 0.526 µM (active) | 0.498 µM (active) | 0.303 µM (active) | 0.229 µM (active) | 0.289 µM (active) | 0.973 µM (active) | 0.383 µM (active) | 0.385 µM (active) | 
8 | C/C(O)=C1\CC2CN3CCc4c([nH]c5ccccc45)C3CC2CC1=O (stereo unspecified) | 38 µM (inactive) | 89.1 µM (inactive) | 43 µM (inactive) | > 100 µM (inactive) | > 100 µM (inactive) | 45.4 | 28.5 µM (inactive) | 67.1 µM (inactive) | > 100 µM (inactive) | 71.1 µM (inactive) | > 100 µM (inactive) | 82.8 µM (inactive) | 26.1 µM (inactive) | 29.4 µM (inactive) | 21.8 µM (inactive) | > 100 µM (inactive) | 20.9 µM (inactive) |  | 
9 | COc1ccc(NC(/C(C(=O)c2ccccc2)=C(\O)C(=O)/C=C(\O)c2ccccc2)c2ccc(OC)cc2)cc1 (stereo unspecified) | 31 µM (inactive) | 59.6 µM (inactive) | 23.6 µM (inactive) | 52.4 µM (inactive) | 21.2 µM (inactive) | 42.1 | 44.3 µM (inactive) | 45.8 µM (inactive) | 35.7 µM (inactive) | > 100 µM (inactive) | 32.9 µM (inactive) | 64.9 µM (inactive) |  | 32.8 µM (inactive) | 42.8 µM (inactive) | 33 µM (inactive) | 37.1 µM (inactive) | 33.2 µM (inactive) | 40.3 µM (inactive)
10 | O=C(NC(=O)c1cc2cc(Br)cc(Br)c2oc1=O)Oc1ccccc1 | 45.3 µM (inactive) | 46.5 µM (inactive) |  | 43.7 µM (inactive) | > 100 µM (inactive) | > 100 | > 100 µM (inactive) | > 100 µM (inactive) | > 100 µM (inactive) | 61.2 µM (inactive) | > 100 µM (inactive) | 21.7 µM (inactive) | 63.2 µM (inactive) | > 100 µM (inactive) | > 100 µM (inactive) | 49.9 µM (inactive) | 28.2 µM (inactive) | 43 µM (inactive) | 
11 | ClCCNCCNCCCl.ClCCNCCNCCCl.[O-][Cl+3]([O-])([O-])O | 18.8 µM (inactive) | 18.9 µM (inactive) | 21.4 µM (inactive) | > 100 µM (inactive) | 19.5 µM (inactive) | 55.8 | 23.6 µM (inactive) | > 100 µM (inactive) | 57.1 µM (inactive) | 61.2 µM (inactive) | 46.2 µM (inactive) | 21.9 µM (inactive) | 20 µM (inactive) | 29.5 µM (inactive) | 31.4 µM (inactive) | 54.6 µM (inactive) | 40.7 µM (inactive) | 19.1 µM (inactive) | 
12 | COC(=O)[C@H]1COC(=S)N1C(=O)[C@@H](C)[C@H](O)C(C)C | > 100 µM (inactive) | > 100 µM (inactive) | > 100 µM (inactive) | > 100 µM (inactive) | > 100 µM (inactive) | > 100 | > 100 µM (inactive) | > 100 µM (inactive) | > 100 µM (inactive) | > 100 µM (inactive) | > 100 µM (inactive) | > 100 µM (inactive) | 57.4 µM (inactive) | > 100 µM (inactive) | > 100 µM (inactive) | > 100 µM (inactive) | > 100 µM (inactive) | > 100 µM (inactive) | 
13 | COc1ccc(OC)c(CCc2cc(OC)c(OC)cc2C)c1 | 38.7 µM (inactive) | 48.5 µM (inactive) | 6.68 µM (inactive) | 49.1 µM (inactive) | 4.2 µM (inactive) |  | 3.64 µM (inactive) | 28.4 µM (inactive) | > 100 µM (inactive) | 81.3 µM (inactive) | 9.38 µM (inactive) | > 100 µM (inactive) |  | 11 µM (inactive) | 12.1 µM (inactive) | 6.89 µM (inactive) |  | 52 µM (inactive) | 
14 | CC(C)(C)N/N=C(\C(=O)Nc1nnc(S)[nH]1)C1C(=O)Nc2ccccc2[S+]1[O-] (stereo unspecified) | > 100 µM (inactive) | > 100 µM (inactive) | > 100 µM (inactive) | > 100 µM (inactive) | > 100 µM (inactive) | > 100 | > 100 µM (inactive) | > 100 µM (inactive) | > 100 µM (inactive) | > 100 µM (inactive) | > 100 µM (inactive) | > 100 µM (inactive) | > 100 µM (inactive) | > 100 µM (inactive) | > 100 µM (inactive) | > 100 µM (inactive) | > 100 µM (inactive) | > 100 µM (inactive) | 
15 | C[C@]12CCc3nonc3C1CC[C@@H]1C2CC[C@]2(C)NC(=O)CCC12 (stereo partly specified) | > 100 µM (inactive) | > 100 µM (inactive) | > 100 µM (inactive) | > 100 µM (inactive) | > 100 µM (inactive) | > 100 | > 100 µM (inactive) | > 100 µM (inactive) | > 100 µM (inactive) | > 100 µM (inactive) | > 100 µM (inactive) | > 100 µM (inactive) | > 100 µM (inactive) | > 100 µM (inactive) | > 100 µM (inactive) | > 100 µM (inactive) | > 100 µM (inactive) | > 100 µM (inactive) | 
16 | O=C1c2ccccc2-c2ccccc2C(=O)C1(Br)Br | 13 µM (inactive) | 11 µM (inactive) | 9.75 µM (inactive) | 18.2 µM (inactive) | 3.93 µM (inactive) | 12.4 | 4.13 µM (inactive) | 15.4 µM (inactive) | 16.6 µM (inactive) | 11.8 µM (inactive) | 7.28 µM (inactive) | 11.7 µM (inactive) | 9.27 µM (inactive) | 2.52 µM (inactive) | 2.67 µM (inactive) | 16.1 µM (inactive) | 3.56 µM (inactive) | 5.87 µM (inactive) | 
